According to article PMC2566891 (Nucleic Acids Research, 2008):

System: 14-3-3
Assay: Binding of p53 peptides to 14-3-3, isoform not given
Conditions: isoform not specified; wild-type p53CT tested up to 200 µM; pS392 by AUC

binding to 14-3-3 (in words): very weak binding
Substance: WT TC (293–393): wild-type tetramerization plus C-terminal domains of p53 (293–393), semi-synthetic
